This passage reports inhibition and IC50 results from ChEMBL document CHEMBL2407027, “(3R,4S,5R,6R,7S)-3,4,5,7-Tetrahydroxyconidine, an azetidine analogue of 6,7-diepicastanospermine and a conformationally constrained d-deoxyaltronojirimycin, from l-arabinose” (Bioorg Med Chem, 2013).

For one test, the system named is Saccharomyces cerevisiae. Briefly: Inhibition of yeast alpha-glucosidase at 1000 uM.
The species entered for test [1] is Rattus norvegicus. Kind of test: Inhibition of rat intestinal alpha-glucosidase at 1000 uM.
The species named for test [2] is Rattus norvegicus. Kind of test: Inhibition of rat intestinal beta-galactosidase at 1000 uM.
The test system of another test is Coffea. Briefly: Inhibition of coffee beans alpha-galactosidase at 1000 uM.
Another test deals with Aspergillus niger. Briefly: Inhibition of Aspergillus niger amyloglucosidase at 1000 uM.
Test [3] concerns the target T1, Tissue alpha-L-fucosidase (Bos taurus, UniProt Q2KIM0).
T1 sequence (Q2KIM0 whole entry): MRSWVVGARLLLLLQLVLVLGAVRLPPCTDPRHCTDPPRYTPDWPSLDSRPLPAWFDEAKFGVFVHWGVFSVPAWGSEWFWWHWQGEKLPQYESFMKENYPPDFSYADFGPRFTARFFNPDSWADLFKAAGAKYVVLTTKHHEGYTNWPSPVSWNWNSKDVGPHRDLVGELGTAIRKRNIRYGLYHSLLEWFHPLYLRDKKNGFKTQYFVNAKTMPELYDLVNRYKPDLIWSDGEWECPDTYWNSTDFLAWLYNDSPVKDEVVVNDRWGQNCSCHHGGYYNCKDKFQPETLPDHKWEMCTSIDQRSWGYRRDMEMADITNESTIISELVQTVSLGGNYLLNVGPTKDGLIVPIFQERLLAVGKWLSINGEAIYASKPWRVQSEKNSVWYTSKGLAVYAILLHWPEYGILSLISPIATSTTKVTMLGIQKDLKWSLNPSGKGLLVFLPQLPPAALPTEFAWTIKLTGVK
Kind of test: Inhibition of bovine alpha-L-fucosidase.

In the next test the test system is Penicillium decumbens. Kind of test: Inhibition of Penicillium decumbens alpha-L-rhamnosidase at 1000 uM.
For a further test, the system named is Oryza sativa. Briefly: Inhibition of rice alpha-glucosidase at 1000 uM.
The target of test [4] is T2, Tissue alpha-L-fucosidase (Bos taurus) (UniProt Q2KIM0).
T2 sequence (whole entry): T1 sequence (Q2KIM0 whole entry)
Briefly: Inhibition of bovine alpha-L-fucosidase at 1000 uM.

Usually inhibition stands for the drop in the measured response relative to a control, in per cent. Low values mean a weak effect, high ones a strong effect. Broadly, the IC50 is the concentration at which inhibition is half-maximal. A lower IC50 goes with greater potency in that assay. With `OC[C@H]1NC[C@@H](O)[C@H](O)[C@@H]1O`, the inhibition was 1.4% in the test with Saccharomyces cerevisiae; 24.2% in the test listed under Rattus norvegicus [1]; 44.6% in the test listed under Rattus norvegicus [2]; 20.5% in the test with Coffea; 5% in the test with Aspergillus niger; 2.1% with Penicillium decumbens. For the same molecule, the inhibition in the test on Oryza sativa was 7.2%. Besides, in [3], the IC50 turned out to be 194 µM.

Consider `O=C1CC[C@H](O)[C@H]2[C@@H](O)CN12`, for which the inhibition in the test with Saccharomyces cerevisiae amounted to 3.1%; in the test filed under Rattus norvegicus [1], 25.2%; in the test filed under Rattus norvegicus [2], 0%; in the test with Coffea, 0%; with Aspergillus niger it was 3%; with Penicillium decumbens it was 11.1%. Further, the inhibition was found to be 2.7% in the test with Oryza sativa and 0% in test [4].
